The test system of assay [1] is TAG. Description: triacylglycerol accumulation inhibitor potency, dose response, cell-based, panel, Nile Red and DAPI fluorescence, H9c2 (AID 651630).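 Note: cells exposed to compound overnight before fixation and staining.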 Particulars: H9c2 cells, Nile Red TAG fluorescence, oleic acid.
The test system of assay [2] is DAPI. The description is as above. Particulars: H9c2 cells, DAPI nuclear fluorescence (cytotoxicity counter-readout), oleic acid.

26 molecules from PubChem BioAssay AID651630 (Sanford-Burnham Center for Chemical Genomics, 2012) can be followed below.

SMILES strings stand for the structures. Active and inactive are the calls of the source.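 Rule for the calls: active = lipid-stain IC50 at or below a set limit, with nuclear-stain toxicity IC50 at least five times higher; inactive = the rest.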 A value given as a limit tells only on which side of the number the result lay.

`c1ccc(-c2nc(SCc3nc4ccccc4[nH]3)c3oc4ccccc4c3n2)cc1`: the values for the IC50 in assay [1] (mean of runs), in assay [1] (run 1) and in assay [1] (run 2) were 10.5 µM, 10 µM and 11 µM, respectively. Also, the IC50 cytotoxicity (DAPI nuclear signal decrease) in assay [2] (mean of runs) is > 25 µM (inactive); in assay [2] (run 1) it was greater than 25 µM; in assay [2] (run 2), greater than 25 µM.
Consider `Cc1cc(NC(=O)c2sccc2C)n(-c2nc3ccccc3[nH]2)n1`, for which the IC50 (in general, the concentration that inhibits the measured activity by half) in assay [1] (mean of runs) is 20.4 µM (inactive); in assay [1] (run 1) it was 19.9 µM; in assay [1] (run 2), 20.9 µM. For the same molecule, the IC50 cytotoxicity (DAPI nuclear signal decrease) in assay [2] (mean of runs) is > 25 µM (inactive); in assay [2] (run 1) it was greater than 25 µM; in assay [2] (run 2), greater than 25 µM.
Regarding `O=C(CSc1nc2ccc(Nc3nc(N4CCOCC4)nc(N4CCOCC4)n3)cc2s1)Nc1ccccc1F`, the values for the 50% inhibitory concentration (IC50) in assay [1] (mean of runs), in assay [1] (run 1) and in assay [1] (run 2) were 12.9 µM, 12.6 µM and 13.2 µM, respectively. In addition, the values for the IC50 cytotoxicity (DAPI nuclear signal decrease) in assay [2] (mean of runs), in assay [2] (run 1) and in assay [2] (run 2) were > 25 µM (inactive), greater than 25 µM and greater than 25 µM, respectively.
As for `O=C(C[C@H]1C[C@H](C(=O)N2CCCCC2)[C@@]2(CCc3ccccc3)c3[nH]c4ccc(Cl)cc4c3CCN2C1=O)NCc1cccc(C(F)(F)F)c1`, the IC50 was 3.78 µM in assay [1] (mean of runs), 2.76 µM in assay [1] (run 1) and 4.8 µM in assay [1] (run 2). Moreover, the IC50 cytotoxicity (DAPI nuclear signal decrease) in assay [2] (run 1) and in assay [2] (run 2) was greater than 25 µM each time.
Turning to `CCOc1ccccc1-c1nc(-c2ccc(NC(=O)Cc3ccccc3OC)cc2)no1`, the IC50 in assay [1] (mean of runs) was > 25 µM (inactive); in assay [1] (run 1), greater than 25 µM; in assay [1] (run 2) it was greater than 25 µM. Moreover, the IC50 cytotoxicity (DAPI nuclear signal decrease) is > 25 µM (inactive) in assay [2] (mean of runs), greater than 25 µM in assay [2] (run 1) and greater than 25 µM in assay [2] (run 2).
For the molecule `COc1cc([C@@H]2c3cc4c(cc3[C@H](O)[C@H]3COC(=O)[C@H]23)OCO4)cc(OC)c1OC`, the IC50 in assay [1] (mean of runs) was > 25 µM (inactive); in assay [1] (run 1) it was greater than 25 µM; in assay [1] (run 2), greater than 25 µM. Further, the figures for the IC50 cytotoxicity (DAPI nuclear signal decrease) in assay [2] (mean of runs), in assay [2] (run 1) and in assay [2] (run 2) were > 25 µM (inactive), greater than 25 µM and greater than 25 µM, respectively.
For `COc1cc(C)c2sc3ccccc3c(=O)c2c1NCCN(C)C`, the values for the concentration for half-maximal inhibition (IC50) in assay [1] (mean of runs), in assay [1] (run 1) and in assay [1] (run 2) were 9.19 µM, 7.48 µM and 10.9 µM, respectively. Besides, the IC50 cytotoxicity (DAPI nuclear signal decrease) was > 25 µM (inactive) in assay [2] (mean of runs), greater than 25 µM in assay [2] (run 1) and greater than 25 µM in assay [2] (run 2).
`COc1ccc2[nH]c3c(c2c1)CCN1C(=O)C(CC(=O)NCC24CC5CC(CC(C5)C2)C4)C[C@H](C(=O)N(C(C)C)C(C)C)[C@@]31C` (some centres not stated): the results for the IC50 in assay [1] (run 1) and in assay [1] (run 2) were 20.8 µM and greater than 25 µM, respectively. The IC50 cytotoxicity (DAPI nuclear signal decrease) in assay [2] (mean of runs) was > 25 µM (inactive); in assay [2] (run 1), greater than 25 µM; in assay [2] (run 2) it was greater than 25 µM.
As for `CC(C)=CCC/C(C)=C/CNC(=O)C[C@H]1C[C@H](C(=O)N2CCCCC2)[C@@]2(CCc3ccccc3)c3[nH]c4cc(-c5ccco5)ccc4c3CCN2C1=O`, the half-maximal inhibitory concentration (IC50) was 9.94 µM in assay [1] (mean of runs), 10.5 µM in assay [1] (run 1) and 9.42 µM in assay [1] (run 2). For the same molecule, the IC50 cytotoxicity (DAPI nuclear signal decrease) in assay [2] (mean of runs) was > 25 µM (inactive); in assay [2] (run 1), greater than 25 µM; in assay [2] (run 2), greater than 25 µM.
On to `CC(=O)Nc1cccc(-c2ccnc3c2CC(C)(C(=O)NCc2ccc(N(C)C)cc2)O3)c1` (configuration not stated), for which the IC50 in assay [1] (mean of runs) is 15.1 µM (inactive); in assay [1] (run 1), 14.7 µM; in assay [1] (run 2) it was 15.5 µM. Also, the figures for the IC50 cytotoxicity (DAPI nuclear signal decrease) in assay [2] (mean of runs), in assay [2] (run 1) and in assay [2] (run 2) were > 25 µM (inactive), greater than 25 µM and greater than 25 µM, respectively.
For `COc1cc2c3c(cccc3c1)C(=O)N(CCN1CCCC1)C2=O`, the IC50 in assay [1] (mean of runs) is 7.94 µM; in assay [1] (run 1), 8.07 µM; in assay [1] (run 2), 7.8 µM. In addition, the IC50 cytotoxicity (DAPI nuclear signal decrease) in assay [2] (mean of runs) is > 25 µM (inactive); in assay [2] (run 1), greater than 25 µM; in assay [2] (run 2) it was greater than 25 µM.
For the molecule `Cc1cc(C)c2nc(NC(=O)c3ccc([N+](=O)[O-])o3)sc2c1`, the IC50 in assay [1] (mean of runs) is > 25 µM (inactive); in assay [1] (run 1), greater than 25 µM; in assay [1] (run 2), greater than 25 µM. Moreover, the IC50 cytotoxicity (DAPI nuclear signal decrease) in assay [2] (mean of runs) was > 25 µM (inactive); in assay [2] (run 1), greater than 25 µM; in assay [2] (run 2), greater than 25 µM.
On to `COc1ccc(-c2sc3ccc(N4CCOCC4)cc3c2C#CC(C)(C)O)cc1`, for which the IC50 in assay [1] (mean of runs) is > 25 µM (inactive); in assay [1] (run 1), greater than 25 µM; in assay [1] (run 2) it was greater than 25 µM. For the same molecule, the IC50 cytotoxicity (DAPI nuclear signal decrease) in assay [2] (mean of runs) is > 25 µM (inactive); in assay [2] (run 1), greater than 25 µM; in assay [2] (run 2) it was greater than 25 µM.
In the case of `COc1ccc(Nc2oc(-c3ccc(Cl)cc3)nc2C#N)cc1`, the half-inhibitory concentration (IC50) was 17.9 µM in assay [1] (run 1) and greater than 25 µM in assay [1] (run 2). The IC50 cytotoxicity (DAPI nuclear signal decrease) in assay [2] (mean of runs) is > 25 µM (inactive); in assay [2] (run 1), greater than 25 µM; in assay [2] (run 2), greater than 25 µM.
For the molecule `CC(C)CCNCC(O)CON=C1c2ccccc2-c2ccccc21` (configuration not stated), the IC50 in assay [1] (mean of runs) was > 25 µM (inactive); in assay [1] (run 1), greater than 25 µM; in assay [1] (run 2) it was greater than 25 µM. Besides, the IC50 cytotoxicity (DAPI nuclear signal decrease) in assay [2] (mean of runs) is > 25 µM (inactive); in assay [2] (run 1) it was greater than 25 µM; in assay [2] (run 2) it was greater than 25 µM.
In the case of `CCOc1ccc(CCNC(=O)c2cc3sc(Cl)cc3n2C)cc1OCC`, the IC50 in assay [1] (mean of runs) is 5.75 µM; in assay [1] (run 1), 7.67 µM; in assay [1] (run 2), 3.82 µM. For the same molecule, the IC50 cytotoxicity (DAPI nuclear signal decrease) in assay [2] (mean of runs) was > 25 µM (inactive); in assay [2] (run 1), greater than 25 µM; in assay [2] (run 2), greater than 25 µM.
On to `O=C(Nc1ccccc1)c1nc[nH]c1C(=O)NCCCCCCNC(=O)c1[nH]cnc1C(=O)Nc1ccccc1`, for which the IC50 in assay [1] (run 1) was 24.9 µM; in assay [1] (run 2), greater than 25 µM. In addition, the IC50 cytotoxicity (DAPI nuclear signal decrease) was > 25 µM (inactive) in assay [2] (mean of runs), greater than 25 µM in assay [2] (run 1) and greater than 25 µM in assay [2] (run 2).
For the molecule `O=C(CSc1cccc2cccnc12)Nc1ccc(S(=O)(=O)N2CCOCC2)cc1`, the IC50 in assay [1] (mean of runs) was > 25 µM (inactive); in assay [1] (run 1) it was greater than 25 µM; in assay [1] (run 2), greater than 25 µM. Moreover, the IC50 cytotoxicity (DAPI nuclear signal decrease) in assay [2] (mean of runs) was > 25 µM (inactive); in assay [2] (run 1) it was greater than 25 µM; in assay [2] (run 2), greater than 25 µM.
Turning to `Cc1[nH]c2ccccc2c1C(c1ccccn1)N1CCC(C)CC1` (configuration not stated), the results for the IC50 in assay [1] (mean of runs), in assay [1] (run 1) and in assay [1] (run 2) were 15.5 µM (inactive), 14.8 µM and 16.2 µM, respectively. Moreover, the results for the IC50 cytotoxicity (DAPI nuclear signal decrease) in assay [2] (mean of runs), in assay [2] (run 1) and in assay [2] (run 2) were 21.8 µM (inactive), 21.2 µM and 22.4 µM, respectively.
For the molecule `CCc1nc(C)c(C(=O)N2CCCC(C(=O)Nc3cccc(-c4cccc(C)c4)c3)C2)o1` (configuration not stated), the IC50 in assay [1] (mean of runs) is > 25 µM (inactive); in assay [1] (run 1), greater than 25 µM; in assay [1] (run 2) it was greater than 25 µM. Further, the IC50 cytotoxicity (DAPI nuclear signal decrease) in assay [2] (mean of runs) is > 25 µM (inactive); in assay [2] (run 1), greater than 25 µM; in assay [2] (run 2) it was greater than 25 µM.
On to `Cc1cc(NC(=O)CSc2nc3ccccc3c(=O)n2C2CCCC2)no1`, for which the half-maximal inhibitory concentration (IC50) is 9.22 µM in assay [1] (mean of runs), 7.24 µM in assay [1] (run 1) and 11.2 µM in assay [1] (run 2). Further, the IC50 cytotoxicity (DAPI nuclear signal decrease) in assay [2] (mean of runs) is > 25 µM (inactive); in assay [2] (run 1), greater than 25 µM; in assay [2] (run 2), greater than 25 µM.
Consider `Cc1cccc2c(C(=O)N3CCN(c4ccccc4)CC3)cc(-c3ccncc3)nc12`, for which the 50% inhibitory concentration (IC50) in assay [1] (mean of runs) is 8.06 µM; in assay [1] (run 1), 7.82 µM; in assay [1] (run 2), 8.31 µM. Besides, the IC50 cytotoxicity (DAPI nuclear signal decrease) in assay [2] (mean of runs) was > 25 µM (inactive); in assay [2] (run 1) it was greater than 25 µM; in assay [2] (run 2) it was greater than 25 µM.
In the case of `O=C(NCC(c1ccc(F)cc1)N1CCOCC1)c1ccc([N+](=O)[O-])o1` (configuration not stated), the IC50 in assay [1] (mean of runs) was > 25 µM (inactive); in assay [1] (run 1), greater than 25 µM; in assay [1] (run 2), greater than 25 µM. Besides, the IC50 cytotoxicity (DAPI nuclear signal decrease) is 19.7 µM (inactive) in assay [2] (mean of runs), 19.7 µM in assay [2] (run 1) and 19.6 µM in assay [2] (run 2).
As to `Cc1ccc2c(c1)N(C(=O)CCC(=O)NCCCN1CCC(Cc3ccccc3)CC1)CCO2`, the IC50 in assay [1] (mean of runs) is 18.7 µM (inactive); in assay [1] (run 1), 19.5 µM; in assay [1] (run 2), 17.9 µM. Further, the IC50 cytotoxicity (DAPI nuclear signal decrease) in assay [2] (mean of runs) is 22.3 µM (inactive); in assay [2] (run 1), 20.2 µM; in assay [2] (run 2) it was 24.3 µM.
Turning to `CCC(C)(C)NC(=O)C(c1ccc(OC)cc1)N(Cc1ccco1)C(=O)CCC(=O)Nc1cc(C)on1` (configuration not stated), the IC50 in assay [1] (mean of runs) is 17.9 µM (inactive); in assay [1] (run 1) it was 21.1 µM; in assay [1] (run 2) it was 14.7 µM. Besides, the results for the IC50 cytotoxicity (DAPI nuclear signal decrease) in assay [2] (mean of runs), in assay [2] (run 1) and in assay [2] (run 2) were > 25 µM (inactive), greater than 25 µM and greater than 25 µM, respectively.
As for `C=CCC[C@@H](Cc1ccc(F)cc1)C(=O)OC[C@@H](NC(=O)[C@@H](CC=C)CC(=O)N[C@H](CO)Cc1ccccc1)C(C)(C)C`, the results for the IC50 in assay [1] (mean of runs), in assay [1] (run 1) and in assay [1] (run 2) were 9.45 µM, 8.65 µM and 10.2 µM, respectively. In addition, the IC50 cytotoxicity (DAPI nuclear signal decrease) in assay [2] (mean of runs) was > 25 µM (inactive); in assay [2] (run 1) it was greater than 25 µM; in assay [2] (run 2), greater than 25 µM.
